Measured values published in patent publication US9656962B2, “Ring-contracted morphinans and the use thereof” (Purdue Pharma L.P., priority 2013, dated 2017).

Legend:
κ-opioid receptor [1] = molecular target: T1, κ-opioid receptor (Homo sapiens (Human), UniProt P41145); experiment: κ-opioid receptor [35S]GTPγS functional assay, U-2 OS cells (Table 5); assay type: biochemical; conditions: for Emax: relative to U69,593; for EC50: κ GTP
Method in brief: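 [35S]GTPγS binding in κ receptor membranes (0.026 μg/μl protein) with 10 μg/mL saponin, 3 μM GDP and 0.20 nM [35S]GTPγS in pH 7.4 HEPES/NaCl/MgCl2 buffer. Agonist incubation lasted 30 min at about 25 °C, followed by filtration and scintillation counting. Emax is expressed relative to U69,593.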

μ-opioid receptor [2] = molecular target: T2, μ-opioid receptor (Homo sapiens (Human), UniProt P35372); experiment: μ-opioid receptor [35S]GTPγS functional assay, U-2 OS cells (Table 5); assay type: biochemical; conditions: for Emax: relative to DAMGO; for EC50: μ GTP
Method in brief: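 Membranes (0.026 mg/mL) from cells expressing recombinant human μ-opioid receptor in a U-2 OS background were incubated with 0.20 nM [35S]GTPγS, 3 mM GDP and saponin in 20 mM HEPES pH 7.4, 100 mM NaCl, 10 mM MgCl2 for 30 min at about 25 °C. Filter-bound radioactivity counted; sigmoidal dose-response fits gave values, Emax relative to DAMGO.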

μ-opioid receptor [3] = molecular target: T2, μ-opioid receptor; experiment: μ-opioid receptor [35S]GTPγS functional assay, HEK-293 or CHO cells (Table 4); assay type: biochemical; conditions: for Emax: relative to DAMGO; for EC50: μ GTP
Description: μ-Opioid Receptor Functional Assay Procedures: [^35S]GTPγS functional assays were conducted using freshly thawed μ-receptor membranes prepared in-house from a cell line expressing recombinant μ opioid receptor in a HEK-293, CHO or U-2 OS cell background, or purchased from a commercial source (Perkin Elmer, Shelton, Conn.; or DiscovRx, Fremont, Calif.). Assay reactions were prepared by sequentially adding the following reagents to binding buffer (100 mM NaCl, 10 mM MgCl2, 20 mM HEPES, pH 7.4) on ice (final concentrations indicated): membrane protein (0.026 mg/mL), saponin ([…]), GDP ([…]) and [^35S]GTPγS (0.20 nM; Perkin Elmer, Shelton, Conn.). The prepared membrane solution (190 μl/well) was transferred to 96-shallow well polypropylene plates containing 10 μl of 20× concentrated stock solutions of the agonist [D-Ala^2, N-methyl-Phe^4 Gly-ol^5]-enkephalin (DAMGO) prepared in dimethyl sulfoxide (DMSO). Plates were incubated for 30 min at about 25° C. with shaking Reactions were terminated by rapid filtration onto 96-well Unifilter GF/B filter plates (Perkin Elmer, Shelton, Conn.) using a 96-well tissue harvester (Perkin Elmer, Shelton, Conn.) followed by three filtration washes with 200 μl of ice-cold wash buffer (10 mM NaH2PO4, 10 mM Na2HPO4, pH 7.4). Filter plates were subsequently dried at 50° C. for 2-3 hours. BetaScint scintillation cocktail (Perkin Elmer, Shelton, Conn.) was added (50 μl/well) and plates were counted using a Packard Top-Count for 1 min/well. Data were analyzed using the sigmoidal dose-response curve fitting functions in GraphPad PRISM v. 3.0, or an in-house function for non-linear, sigmoidal dose-response curve-fitting. [^35S]GTPγS functional assays can also be conducted using freshly thawed μ-receptor membranes prepared from a cell line expressing recombinant μ opioid receptor in a CHO-K1 cell background.
μ GTP Emax (%) is the maximal effect elicited by a compound relative to the effect elicited by DAMGO, a standard μ agonist.
(§1) In TABLE 4, activity response of certain Compounds of the Invention to the μ- and κ-opioid receptors was determined as described above for functional assays using HEK-293 or CHO cells.

κ-opioid receptor [4] = molecular target: T1, κ-opioid receptor; experiment: κ-opioid receptor [35S]GTPγS functional assay, HEK-293 or CHO cells (Table 4); assay type: biochemical; conditions: for Emax: relative to U69,593; for EC50: κ GTP
Description: κ-Opioid Receptor Functional Assay Procedures: Functional [^35S]GTPγS binding assays were conducted as follows. κ opioid receptor membrane solution was prepared by sequentially adding final concentrations of 0.026 μg/μl κ membrane protein (in-house), 10 μg/mL saponin, 3 μM GDP and 0.20 nM [^35S]GTPγS to binding buffer (100 mM NaCl, 10 mM MgCl2, 20 mM HEPES, pH 7.4) on ice. The prepared membrane solution (190 μl/well) was transferred to 96-shallow well polypropylene plates containing 10 μl of 20× concentrated stock solutions of agonist prepared in DMSO. Plates were incubated for 30 min at a temperature of about 25° C. with shaking. Reactions were terminated by rapid filtration onto 96-well Unifilter GF/B filter plates (Perkin Elmer, Shelton, Conn.) using a 96-well tissue harvester (Packard) and followed by three filtration washes with 200 μl ice-cold binding buffer (10 mM NaH2PO4, 10 mM Na2HPO4, pH 7.4). Filter plates were subsequently dried at 50° C. for 2-3 hours. Fifty μl/well scintillation cocktail (Perkin Elmer, Shelton, Conn.) was added and plates were counted in a Packard Top-Count for 1 min/well.
κ GTP Emax (%) is the maximal effect elicited by a compound relative to the effect elicited by U69,593.
as §1

[5] = molecular target: recombinant human kappa opioid receptor (κ) (Homo sapiens (Human), UniProt P41145); experiment: κ-opioid receptor radioligand binding assay ([3H]-U69,593); conditions: binding affinity
Description: κ-Opioid Receptor Binding Assay Procedures: Membranes from HEK-293 cells, CHO cells or U-2 OS cells expressing the recombinant human kappa opioid receptor (κ) were prepared by lysing cells in ice cold hypotonic buffer (2.5 mM MgCl2, 50 mM HEPES, pH 7.4) (10 mL/10 cm dish) followed by homogenization with a tissue grinder/Teflon pestle. Membranes from a cell line naturally expressing kappa opioid receptor can also be used. Membranes were collected by centrifugation at 30,000×g for 15 min at 4° C. and pellets were resuspended in hypotonic buffer to a final concentration of 1-3 mg/mL. Protein concentrations were determined using the BioRad protein assay reagent with bovine serum albumen as standard. Aliquots of κ receptor membranes were stored at −80° C.
Radioligand dose displacement assays used 0.4 nM [^3H]-U69,593 (GE Healthcare, Piscataway, N.J.; 40 Ci/mmole) with 15 μg membrane protein (recombinant opioid receptor expressed in HEK 293 cells; in-house prep) in a final volume of 200 μl binding buffer (5% DMSO, 50 mM Trizma base, pH 7.4). Non-specific binding was determined in the presence of 10 μM unlabeled naloxone or U69,593. All reactions were performed in 96-well polypropylene plates for 1 hour at a temperature of about 25° C. Binding reactions were terminated by rapid filtration onto 96-well Unifilter GF/C filter plates (Perkin Elmer, Shelton, Conn.) presoaked in 0.5% polyethylenimine (Sigma). Harvesting was performed using a 96-well tissue harvester (Perkin Elmer, Shelton, Conn.) followed by five filtration washes with 200 μl ice-cold binding buffer. Filter plates were subsequently dried at 50° C. for 1-2 hours. Fifty μl/well scintillation cocktail (Perkin Elmer, Shelton, Conn.) was added and plates were counted in a Packard Top-Count for 1 min/well.

Row | Structure (SMILES) | Emax (κ-opioid receptor [1]) | EC50 (κ-opioid receptor [1]) | Emax (μ-opioid receptor [2]) | EC50 (μ-opioid receptor [2]) | Emax (μ-opioid receptor [3]) | EC50 (μ-opioid receptor [3]; bound given in μM) | Emax (κ-opioid receptor [4]) | EC50 (κ-opioid receptor [4]) | Ki [5] | EC50 (μ-opioid receptor [3])
1 | O=C(NCc1ccc(Cl)c(Cl)c1)[C@@H]1C[C@]23CCN(CC4CC4)[C@H](Cc4ccc(O)cc42)[C@]3(O)C1 [Compound 46, (2R,3aS,4R,9bS)-12-(cyclopropylmethyl)-N-(3,4-dichlorobenzyl)-3a,8-dihydroxy-1,2,3,3a,4,5-hexahydro-4,9b-(epimino-ethano)cyclopenta[a]naphthalene-2-carboxamide] | 106 ± 4.26% | 0.11 ± 0.01 nM | 38 ± 1.73% | 0.91 ± 0.05 nM | 0% | > 20 µM | 32 ± 5% | 0.2 ± 0.072 nM | – | –
2 | NC(=O)[C@H]1C[C@]23CCN(CC4CC4)[C@H](Cc4ccc(O)cc42)[C@]3(O)C1 [Compound 30, (2S,3aS,4R,9bS)-12-(cyclopropylmethyl)-3a,8-dihydroxy-1,2,3,3a,4,5-hexahydro-4,9b-(epiminoethano)cyclopenta-[a]naphthalene-2-carboxamide] | 100 ± 1.2% | 1.26 ± 0.05 nM | 32 ± 1.15% | 1.62 ± 0.41 nM | 1% | > 20 µM | 50.7 ± 0.33% | 2.49 ± 0.09 nM | – | –
3 | CC(C)CNC(=O)[C@H]1C[C@]23CCN(CC4CC4)[C@H](Cc4ccc(O)cc42)[C@]3(O)C1 [Compound 36, (2S,3aS,4R,9bS)-12-(cyclopropylmethyl)-3a,8-dihydroxy-N-isobutyl-1,2,3,3a,4,5-hexahydro-4,9b-(epiminoethano)-cyclopenta[a]naphthalene-2-carboxamide] | 108 ± 4.1% | 0.27 ± 0.019 nM | 47.7 ± 3.18% | 1.96 ± 0.27 nM | 1% | > 20 µM | 94.7 ± 3.71% | 2.24 ± 0.46 nM | – | –
4 | O=C(NCCN1CCOCC1)[C@H]1C[C@]23CCN(CC4CC4)[C@H](Cc4ccc(O)cc42)[C@]3(O)C1 [Compound 93, (2S,3aS,4R,9bS)-12-(cyclopropylmethyl)-3a,8-dihydroxy-N-(2-morpholinoethyl)-1,2,3,3a,4,5-hexahydro-4,9b-(epimino-ethano)cyclopenta[a]naphthalene-2-carboxamide] | – | – | – | – | 28.8 ± 4.91% | – | 81.5 ± 1.27% | 1.52 ± 0.17 nM | 0.64 ± 0.071 nM | 0.00395 ± 0.00065 µM
5 | O=C(NCc1ccc(Cl)c(Cl)c1)[C@H]1C[C@]23CCN(CC4CC4)[C@H](Cc4ccc(O)cc42)[C@]3(O)C1 [Compound 47, (2S,3aS,4R,9bS)-12-(cyclopropylmethyl)-N-(3,4-dichlorobenzyl)-3a,8-dihydroxy-1,2,3,3a,4,5-hexahydro-4,9b-(epimino-ethano)cyclopenta[a]naphthalene-2-carboxamide] | 95 ± 5.29% | 0.015 nM | 98.8 ± 1.49% | 0.05 ± 0.01 nM | 86 ± 3.46% | – | 88.8 ± 10% | 0.03 ± 0.01 nM | – | 0.00276 ± 8.2e-05 µM
6 | O=C(NCc1ccc(O)cc1O)[C@@H]1C[C@]23CCN(CC4CC4)[C@H](Cc4ccc(O)cc42)[C@]3(O)C1 [Compound 41, (2R,3aS,4R,9bS)-12-(cyclopropylmethyl)-N-(2,4-dihydroxybenzyl)-3a,8-dihydroxy-1,2,3,3a,4,5-hexahydro-4,9b-(epimino-ethano)cyclopenta[a]naphthalene-2-carboxamide] | 86.7 ± 6.74% | 1.02 ± 0.08 nM | 25.3 ± 1.33% | 4.19 ± 1.02 nM | 1% | > 20 µM | 35.8 ± 3.07% | 1.74 ± 0.47 nM | – | –
7 | N[C@@H]1CC23CCN(CC4CC4)[C@H](Cc4ccc(O)cc42)[C@]3(O)C1 (stereo in doubt) [Compound 22, (2R,3aS,4R,9bS)-2-amino-12-(cyclopropylmethyl)-1,2,3,3a,4,5-hexahydro-4,9b-(epiminoethano)-cyclopenta[a]naphthalene-3a,8-diol] | 101 ± 1.76% | 25.4 ± 2.09 nM | 20.7 ± 2.4% | 111 ± 14.1 nM | 1% | > 20 µM | 77 ± 1% | 25.7 ± 4.99 nM | – | –
8 | Cc1ccc(CNC(=O)[C@@H]2C[C@]34CCN(CC5CC5)[C@H](Cc5ccc(O)cc53)[C@]4(O)C2)cc1 [Compound 37, (2R,3aS,4R,9bS)-12-(cyclopropylmethyl)-3a,8-dihydroxy-N-(4-methylbenzyl)-1,2,3,3a,4,5-hexahydro-4,9b-(epimino-ethano)cyclopenta[a]naphthalene-2-carboxamide] | 105.3 ± 0.88% | 0.97 ± 0.11 nM | 30.7 ± 2.67% | 8.48 ± 2.28 nM | 1% | > 20 µM | 32.5 ± 2.1% | 1.74 ± 0.39 nM | – | –
9 | COc1ccc2c(c1)[C@]13CCN(CC4CC4)[C@H](C2)[C@]1(O)C[C@@H](C(=O)O)C3 [Compound 15, (2S,3aS,4R,9bS)-12-(cyclopropylmethyl)-3a-hydroxy-8-methoxy-1,2,3,3a,4,5-hexahydro-4,9b-(epiminoethano)-cyclopenta[a]naphthalene-2-carboxylic acid] | 79.7 ± 5.81% | 2900 ± 82.3 nM | 31.6 ± 3.21% | 343 ± 110 nM | 7% | > 20 µM | – | – | – | –
10 | COc1ccc2c(c1)C13CCN(CC4CC4)[C@H](C2)[C@]1(O)C[C@@H](N)C3 (stereo in doubt) [Compound 28, (2S,3aS,4R,9bS)-2-amino-12-(cyclopropylmethyl)-8-methoxy-1,2,3,3a,4,5-hexahydro-4,9b-(epiminoethano)cyclopenta[a]naphthalene-3a-ol] | 106.7 ± 0.88% | 179 ± 16.4 nM | 35.7 ± 5.49% | 326 ± 77.9 nM | 7.5% | > 20 µM | – | – | – | –
